The record followed here is patent US4626505A, “Selectable markers for yeast transformation” (E. I. Du Pont de Nemours and Company, priority 1984, dated 1986).

The test concerns industrial S. cerevisiae strains ATCC 7754 and ATCC 4921. Nature of the test: Growth/resistance of industrial yeast strains, untransformed and transformed with pCP2-4-10. Particulars: for resistance of industrial transformants to structurally related sulfonylurea growth inhibitors: ATCC 7754 and ATCC 4921 transformed with pCP2-4-10. The format is cell-based, Saccharomyces cerevisiae. The protocol:
[…]. […] The optimum period of incubation with glusulase for producing spheroplasts was determined to be approximately 3 hours.
The resulting industrial transformants were resistant to other, structurally related sulfonylurea growth inhibitors in addition to sulfometuron methyl. These inhibitors included N-[(4-methoxy-6-methyl-pyrimidin-2-yl)aminocarbonyl]-2-nitrobenzenesulfonamide; N-[(4,6-dimethoxy-pyrimidin-2-yl)-aminocarbonyl]-2-methylthiobenzenesulfonamide; and 2-[[(4-chloro-6-methoxypyrimidine-2-yl)amino carbonyl]aminosulfonyl]benzoic acid, ethyl ester.

As to `CCOC(=O)c1ccccc1S(=O)(=O)NC(=O)Nc1nc(Cl)cc(OC)n1` [2-[[(4-chloro-6-methoxypyrimidine-2-yl)aminocarbonyl]aminosulfonyl]benzoic acid, ethyl ester], the “resistance of industrial transformants to structurally related sulfonylurea growth inhibitors” value was “resistant”.

For the molecule `COc1cc(OC)nc(NC(=O)NS(=O)(=O)c2ccccc2SC)n1` [N-[(4,6-dimethoxy-pyrimidin-2-yl)-aminocarbonyl]-2-methylthiobenzenesulfonamide], the “resistance of industrial transformants to structurally related sulfonylurea growth inhibitors” value is “resistant”.

Regarding `COc1cc(C)nc(NC(=O)NS(=O)(=O)c2ccccc2[N+](=O)[O-])n1` [N-[(4-methoxy-6-methyl-pyrimidin-2-yl)aminocarbonyl]-2-nitrobenzenesulfonamide], the “resistance of industrial transformants to structurally related sulfonylurea growth inhibitors” value is “resistant”.

Regarding `COC(=O)c1ccccc1S(=O)(=O)NC(=O)Nc1nc(C)cc(C)n1` [sulfometuron methyl], the “growth of untransformed wild-type strains” value (30 μg/mL, ATCC 7754 and ATCC 4921, untransformed) was “completely inhibited”.
